Tests used:
[1] = system: PC-3; assay: Growth inhibition of human PC3 cells assessed as cell growth inhibition incubated for 48 hrs by sulforhodamine B assay; format: functional; settings: PC-3, 48 h
[2] = system: RXF 393; assay: Growth inhibition of human RXF393 cells assessed as cell growth inhibition incubated for 48 hrs by sulforhodamine B assay; format: functional; settings: RXF 393, 48 h
[3] = system: SK-MEL-28; assay: Growth inhibition of human SK-MEL-28 cells assessed as cell growth inhibition incubated for 48 hrs by sulforhodamine B assay; format: functional; settings: SK-MEL-28, 48 h
[4] = system: MV4-11; assay: Antiproliferative activity against human MV4-11 cells assessed as reduction in cell viability; format: functional, cell-based
[5] = system: A-375; assay: Antiproliferative activity against human A375 cells assessed as reduction in cell viability; format: functional, cell-based
[6] = system: MDA-MB-468; assay: Growth inhibition of human MDA-MB-468 cells assessed as cell growth inhibition incubated for 48 hrs by sulforhodamine B assay; format: functional; settings: MDA-MB-468, 48 h
[7] = system: HOP-92; assay: Growth inhibition of human HOP92 cells assessed as cell growth inhibition incubated for 48 hrs by sulforhodamine B assay; format: functional; settings: HOP-92, 48 h
[8] = system: MV4-11; assay: Induction of apoptosis in human MV4-11 cells at < 100 nM measured after 24 hrs by Annexin V-FITC/propidium iodide staining based FACScan flow cytometry relative to control; format: functional
[9] = system: K562; assay: Growth inhibition of human K562 cells assessed as cell growth inhibition incubated for 48 hrs by sulforhodamine B assay; format: functional; settings: K562, 48 h
[10] = system: VCaP; assay: Antiproliferative activity against human VCaP cells assessed as reduction in cell viability; format: functional, cell-based
[11] = system: MV4-11; assay: Induction of apoptosis in human MV4-11 cells measured after 24 hrs by Annexin V-FITC/propidium iodide staining based FACScan flow cytometry; format: functional, cell-based
[12] = system: CAKI-1; assay: Growth inhibition of human Caki1 cells assessed as cell growth inhibition incubated for 48 hrs by sulforhodamine B assay; format: functional; settings: CAKI-1, 48 h
[13] = system: MV4-11; assay: Antiproliferative activity against human MV4-11 cells assessed as reduction in cell viability measured after 48 hrs by CellTiter-Glo assay; format: functional, cell-based; settings: MV4-11, 48 h
[14] = system: COLO 205; assay: Growth inhibition of human COLO205 cells assessed as cell growth inhibition incubated for 48 hrs by sulforhodamine B assay; format: functional; settings: COLO 205, 48 h
[15] = system: LNCaP-Clone-FGC; assay: Antiproliferative activity against human LNCaP-FGC cells assessed as reduction in cell viability; format: functional, cell-based
[16] = system: MV4-11; assay: Cell cycle arrest in human MV4-11 cells assessed as accumulation at G1 phase at 100 nM measured after 24 hrs by RNase/propidium iodide staining based FACScan flow cytometry (reference value: 59.66 %); format: functional
[17] = system: SNB-75; assay: Growth inhibition of human SNB75 cells assessed as cell growth inhibition incubated for 48 hrs by sulforhodamine B assay; format: functional; settings: SNB-75, 48 h
[18] = system: KM12; assay: Growth inhibition of human KM12 cells assessed as cell growth inhibition incubated for 48 hrs by sulforhodamine B assay; format: functional; settings: KM12, 48 h
[19] = system: TT; assay: Antiproliferative activity against human TT cells assessed as reduction in cell viability; format: functional, cell-based
[20] = system: HCC827; assay: Antiproliferative activity against human HCC827 cells assessed as reduction in cell viability; format: functional, cell-based
[21] = system: SK-MEL-5; assay: Growth inhibition of human SK-MEL-5 cells assessed as cell growth inhibition incubated for 48 hrs by sulforhodamine B assay; format: functional; settings: SK-MEL-5, 48 h
[22] = system: TK-10; assay: Growth inhibition of human TK10 cells assessed as cell growth inhibition incubated for 48 hrs by sulforhodamine B assay; format: functional; settings: TK-10, 48 h
[23] = system: A549; assay: Growth inhibition of human A549/ATCC cells assessed as cell growth inhibition incubated for 48 hrs by sulforhodamine B assay; format: functional; settings: A549, 48 h
[24] = system: M14; assay: Growth inhibition of human M14 cells assessed as cell growth inhibition incubated for 48 hrs by sulforhodamine B assay; format: functional; settings: M14, 48 h
[25] = system: A549; assay: Antiproliferative activity against human A549 cells assessed as reduction in cell viability; format: functional, cell-based
[26] = system: EKVX; assay: Growth inhibition of human EKVX cells assessed as cell growth inhibition incubated for 48 hrs by sulforhodamine B assay; format: functional
[27] = system: HL-60(TB); assay: Growth inhibition of human HL-60(TB) cells assessed as cell growth inhibition incubated for 48 hrs by sulforhodamine B assay; format: functional; settings: HL-60, 48 h
[28] = system: NCI-H1650; assay: Antiproliferative activity against human NCI-H1650 cells assessed as reduction in cell viability; format: functional, cell-based
[29] = system: SF-539; assay: Growth inhibition of human SF539 cells assessed as cell growth inhibition incubated for 48 hrs by sulforhodamine B assay; format: functional; settings: SF-539, 48 h
[30] = system: NCI-H23; assay: Growth inhibition of human NCI-H23 cells assessed as cell growth inhibition incubated for 48 hrs by sulforhodamine B assay; format: functional; settings: NCI-H23, 48 h
[31] = system: Malme-3M; assay: Growth inhibition of human MALME-3M cells assessed as cell growth inhibition incubated for 48 hrs by sulforhodamine B assay; format: functional
[32] = system: BT-549; assay: Growth inhibition of human BT549 cells assessed as cell growth inhibition incubated for 48 hrs by sulforhodamine B assay; format: functional; settings: BT-549, 48 h
[33] = target: Protein cereblon/Bromodomain-containing protein 3/Cullin-4A (Homo sapiens, UniProt Q15059+Q96SW2+Q13619); assay: Protac activity at cereblon/cullin4A/BRD3 in human MV4-11 cells assessed as induction of BRD3 degradation at 50 nM measured after 18 hrs by Western blot analysis; format: cell-based; settings: mv4-11, 18 h, 0.05 µM
Sequence of Protein cereblon/Bromodomain-containing protein 3/Cullin-4A (Q15059 whole entry): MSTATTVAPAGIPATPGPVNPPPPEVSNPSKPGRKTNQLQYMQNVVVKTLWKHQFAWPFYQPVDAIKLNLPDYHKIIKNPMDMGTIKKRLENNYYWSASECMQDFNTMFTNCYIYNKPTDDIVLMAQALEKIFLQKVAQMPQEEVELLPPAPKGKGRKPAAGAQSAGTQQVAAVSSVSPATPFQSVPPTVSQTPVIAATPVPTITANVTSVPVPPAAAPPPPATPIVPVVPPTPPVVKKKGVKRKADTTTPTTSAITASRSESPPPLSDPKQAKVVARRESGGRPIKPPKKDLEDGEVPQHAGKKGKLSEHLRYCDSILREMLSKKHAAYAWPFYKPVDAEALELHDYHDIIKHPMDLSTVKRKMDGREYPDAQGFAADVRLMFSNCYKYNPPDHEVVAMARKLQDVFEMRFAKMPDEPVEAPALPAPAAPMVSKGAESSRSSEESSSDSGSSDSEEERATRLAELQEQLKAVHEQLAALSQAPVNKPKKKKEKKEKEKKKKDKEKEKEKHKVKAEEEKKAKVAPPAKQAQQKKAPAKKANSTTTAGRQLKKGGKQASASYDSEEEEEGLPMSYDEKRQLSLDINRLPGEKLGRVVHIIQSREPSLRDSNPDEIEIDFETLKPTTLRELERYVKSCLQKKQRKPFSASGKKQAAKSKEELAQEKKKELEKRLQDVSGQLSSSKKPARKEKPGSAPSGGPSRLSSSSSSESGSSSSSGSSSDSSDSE
Sequence of Protein cereblon/Bromodomain-containing protein 3/Cullin-4A (Q96SW2 whole entry): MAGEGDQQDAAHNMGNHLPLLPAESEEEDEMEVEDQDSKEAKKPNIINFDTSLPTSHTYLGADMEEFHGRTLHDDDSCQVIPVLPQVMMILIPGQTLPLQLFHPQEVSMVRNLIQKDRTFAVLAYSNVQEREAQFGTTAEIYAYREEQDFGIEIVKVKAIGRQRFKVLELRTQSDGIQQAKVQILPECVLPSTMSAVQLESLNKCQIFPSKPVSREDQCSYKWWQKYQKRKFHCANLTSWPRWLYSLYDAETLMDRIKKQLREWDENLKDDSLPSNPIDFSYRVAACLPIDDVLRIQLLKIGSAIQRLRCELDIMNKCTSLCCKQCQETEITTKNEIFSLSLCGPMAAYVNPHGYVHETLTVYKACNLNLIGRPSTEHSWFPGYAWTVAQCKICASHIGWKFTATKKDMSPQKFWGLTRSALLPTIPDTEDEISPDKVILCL
Sequence of Protein cereblon/Bromodomain-containing protein 3/Cullin-4A (Q13619 whole entry): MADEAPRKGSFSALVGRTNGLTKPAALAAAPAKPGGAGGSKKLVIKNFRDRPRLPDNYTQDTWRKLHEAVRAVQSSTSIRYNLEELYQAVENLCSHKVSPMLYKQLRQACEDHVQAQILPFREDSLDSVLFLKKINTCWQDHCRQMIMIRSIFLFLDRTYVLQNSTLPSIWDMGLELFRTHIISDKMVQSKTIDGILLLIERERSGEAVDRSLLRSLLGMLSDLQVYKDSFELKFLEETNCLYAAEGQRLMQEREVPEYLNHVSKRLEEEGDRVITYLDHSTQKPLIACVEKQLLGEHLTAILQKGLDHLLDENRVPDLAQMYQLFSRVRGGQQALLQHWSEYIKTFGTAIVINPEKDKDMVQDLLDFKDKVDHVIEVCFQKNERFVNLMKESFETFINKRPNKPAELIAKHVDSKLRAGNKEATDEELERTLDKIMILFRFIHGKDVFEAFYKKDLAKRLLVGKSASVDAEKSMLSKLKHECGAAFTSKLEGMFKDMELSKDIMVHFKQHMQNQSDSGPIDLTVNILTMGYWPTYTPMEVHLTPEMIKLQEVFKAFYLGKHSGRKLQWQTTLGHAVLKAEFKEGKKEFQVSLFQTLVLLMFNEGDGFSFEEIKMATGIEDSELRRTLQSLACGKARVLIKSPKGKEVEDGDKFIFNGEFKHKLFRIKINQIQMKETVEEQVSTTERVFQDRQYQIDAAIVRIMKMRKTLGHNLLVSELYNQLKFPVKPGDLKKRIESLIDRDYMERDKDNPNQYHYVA

[34] = system: SK-OV-3; assay: Growth inhibition of human SKOV3 cells assessed as cell growth inhibition incubated for 48 hrs by sulforhodamine B assay; format: functional; settings: SK-OV-3, 48 h
[35] = system: MDA-MB-435; assay: Growth inhibition of human MDA-MB-435 cells assessed as cell growth inhibition incubated for 48 hrs by sulforhodamine B assay; format: functional; settings: MDA-MB-435, 48 h
[36] = system: RPMI-8226; assay: Growth inhibition of human RPMI8226 cells assessed as cell growth inhibition incubated for 48 hrs by sulforhodamine B assay; format: functional; settings: RPMI-8226, 48 h
[37] = system: UACC-62; assay: Growth inhibition of human UACC62 cells assessed as cell growth inhibition incubated for 48 hrs by sulforhodamine B assay; format: functional; settings: UACC-62, 48 h
[38] = system: CCRF-CEM; assay: Growth inhibition of human CCRF-CEM cells assessed as cell growth inhibition incubated for 48 hrs by sulforhodamine B assay; format: functional

COc1ccccc1S(=O)(=O)Nc1ccc2c3c(cc(CCC(=O)NCCCCNc4cccc5c4C(=O)N(C4CCC(=O)NC4=O)C5=O)cc13)C(=O)N2C (stereo not drawn)
GI50 [1]: 248 nM
GI50 [2]: 864 nM
GI50 [3]: 891 nM
IC50 [4]: 9.79 nM
IC50 [5]: 2440 nM
GI50 [6]: 20 nM
GI50 [7]: 26 nM
Activity [8]: 80%
GI50 [9]: 422 nM
IC50 [10]: 250 nM
Activity [11]: Dose-dependent effect
GI50 [12]: 2630 nM
IC50 [13]: 12.2 nM
GI50 [14]: 495 nM
IC50 [15]: 910 nM
Activity [16]: 71.37%
GI50 [17]: 89 nM
GI50 [18]: 675 nM
IC50 [19]: 37.4 nM
IC50 [20]: 580 nM
GI50 [21]: 1120 nM
GI50 [22]: 895 nM
GI50 [23]: 5260 nM
GI50 [24]: 937 nM
IC50 [25]: 13700 nM
GI50 [26]: 7480 nM
GI50 [27]: 22 nM
IC50 [28]: 1330 nM
GI50 [29]: 752 nM
GI50 [30]: 37500 nM
GI50 [31]: 161 nM
GI50 [32]: 78 nM
Activity [33]: Not Active
GI50 [34]: 1630 nM
GI50 [35]: 819 nM
GI50 [36]: 683 nM
GI50 [37]: 5450 nM
GI50 [38]: 28 nM

Reference: ChEMBL document CHEMBL4609992, “Discovery of novel small molecule induced selective degradation of the bromodomain and extra-terminal (BET) bromodomain protein BRD4 and BRD2 with cellular potencies” (Bioorg Med Chem, 2020)
